Assays:
Type in all cases: in vivo, human
[1] = GLM risk map of infarction from initial DWI/PWI compared with final infarct on follow-up imaging in bFGF trial patients; conditions: Patient 7; full dose (150 ug/kg); 19 day follow-up FLAIR
Description: A generalized linear model (GLM) of risk of tissue infarction was generated from retrospective studies of hyperacute cerebral ischemia patients who received diffusion and perfusion weighted imaging within twelve hours of presenting with symptoms. Only patients with cortical infarcts caused by occlusion of major cerebral arteries were included in the training data. […] The volumetric diffusion and perfusion data were coregistered utilizing an automated image registration software package (AIR 3.08). Utilizing a supervised learning algorithm and logistic regression, the parameters for the GLM were computed using coregistered data sets, as described in the previous section.
In one embodiment, a GLM algorithm is used to model tissue outcome. Tissue outcome y can be modeled as a binary variable (normal/abnormal) and therefore a Bernoulli probability density function assumed for its distribution. The logistic function can then be used to compute y as set forth below in Equation 1: [formula] where y is an estimate of the risk of infarction, x represents an input vector that can include an initial T2, ADC, rCBF (relative cerebral blood flow), rCBV (relative cerebral blood volume) and MTT (mean transmit time) data and B the calculated coefficients.
The dose of bFGF was correlated with the positive predictive value (PPV) of the GLM model described in the previous section. […]

[2] = phase I/II double-blind, randomized, placebo-controlled, dose-escalation trial of intravenous bFGF (FIBLAST) in stroke patients; change in NIH Stroke Scale score, admission vs discharge; conditions: Patient 9*; 3 μg/kg; NIH SS (Initial) 2; follow-up 3 days
[3] = as above; conditions: for number of treated patients with ΔNIH SS < 4 / number of treated patients with ΔNIH SS ≧ 4 (improved outcome): 2 × 2 contingency table
Method: Sixty-six patients were entered into a phase I/II trial of basic fibroblast growth factor (bFGF), FIBLAST. This trial was a double-blind, randomized, placebo-controlled, dose-escalation, and three month follow-up study of intravenous infusion of basic fibroblast growth factor (bFGF). Patients were randomized either to placebo or one of six different doses of bFGF ranging from […] to 150 μg/kg. Eleven patients were enrolled at Massachusetts General Hospital (MGH). Each patient underwent MRI imaging according to the standard MGH protocol within the first ten hours of symptom onset, and follow-up imaging at discharge.
The primary efficacy measure was change in NIH Stroke Scale (NIHSS) score measured at admission compared to that reported at discharge. Patients were classified as having an improved outcome if the NIH SS score decreased by more than four points. Two by two contingency tables were computed for the placebo versus the bFGF treated patients and a Fisher's Exact test performed.
Patients with greater than a four point change on the NIH SS score were classified as having a favorable outcome. A 2×2 contingency table, shown in Table 4, was evaluated for statistical independence between treated and placebo groups using Fisher's exact test.

[4] = patients enrolled at MGH, all doses pooled
[5] = subset of 7 patients evaluated with GLM models

For basic fibroblast growth factor [bFGF], the “outcome of penumbra predicted at risk of infarction by the risk map, on follow-up FLAIR” value [1] was “does not go on to infarction”, the “NIH SS (Discharge)” value [2] was 2 and the “number of treated patients with ΔNIH SS < 4” value [3, 4] was 4. For the same substance, the “number of treated patients with ΔNIH SS ≧ 4 (improved outcome)” value [3, 4] was 4, the “number of treated patients with ΔNIH SS < 4” value [3, 5] was 1 and the “number of treated patients with ΔNIH SS ≧ 4 (improved outcome)” value [3, 5] was 4. For the same substance, the “NIH SS (Discharge)” value ([3]; Patient 3, 9 μg/kg, NIH SS (Initial) 15, follow-up 7 days) was 5, the “NIH SS (Discharge)” value ([3]; Patient 4, 27 μg/kg, NIH SS (Initial) 15, follow-up 7 days) was 11 and the “NIH SS (Discharge)” value ([3]; Patient 5, 75 μg/kg, NIH SS (Initial) 6, follow-up 4 days) was 1. For the same substance, the “NIH SS (Discharge)” value ([3]; Patient 6, 150 μg/kg, NIH SS (Initial) 16, follow-up 13 days) was 14, the “NIH SS (Discharge)” value ([3]; Patient 7, 150 μg/kg, NIH SS (Initial) 17, follow-up 19 days) was 12 and the “NIH SS (Discharge)” value ([3]; Patient 8*, 75 μg/kg, NIH SS (Initial) 4, follow-up 8 days) was 2. For the same substance, the “NIH SS (Discharge)” value ([3]; Patient 10*, 75 μg/kg, NIH SS (Initial) 4, follow-up 5 days) was 3, the “NIH SS (Discharge)” value ([3]; Patient 11*, 3 μg/kg, NIH SS (Initial) 18, follow-up 7 days) was 20 and the “statistical independence between treated and placebo groups, improved outcome (Fisher's exact test)” value ([3]; Table 4, patients enrolled at MGH) was “No statistical significance”. The “statistical independence between treated and placebo groups, improved outcome (Fisher's exact test)” value ([3]; Table 5, subset of 7 patients) was “No statistical significance”.
